What was measured:
HEL 92.1.7 cells = experiment: Cell proliferation assay (CCK8); format: cell-based; settings: HEL 92.1.7, 48 h
Description: (§1) This example describes inhibition of in vitro cell proliferation with exemplary HDAC11 inhibitors. The effects of selective HDAC11 inhibitors on cell proliferation were measured in cell lines containing the MPN-associated mutations MPL W515L (Ba/F3 MPL W515L) and JAK2 V617F (Ba/F3 JAK2 V617F, HEL 92.1.7, SET-2). HEL 92.1.7 and SET-2 cells were purchased from the ATCC and DSMZ, respectively. Ba/F3 cells overexpressing either MPLW515L or JAK2V617F, which were cytokine independent, were generated by transforming Ba/F3 cells with retroviruses overexpressing either MPL W515L or JAK2V617F. For survival assays, cells were seeded in 96-well plates at the density of 0.1 million/ml with addition of indicated compounds and incubated at 37° C. for 48 h. CCK8 solution (Dojindo, Rockville, Md.) was added and absorbance at 450 nm was measured after 3 hours of incubation. Readings were normalized to dimethylsulfoxide (DMSO)-treated wells.

SET-2 cells = experiment: Cell proliferation assay (CCK8); format: cell-based; settings: Ruxolitinib-resistant SET-2
Description: as §1

[1] = tested on: STAT3 phosphorylation in HEL 92.1.7 cells; experiment: STAT3 and STAT5 phosphorylation western blot assay; format: cell-based; settings: HEL 92.1.7, western blot
Description: (§2) The effects of selective HDAC11 inhibition on STAT3 and […] phosphorylation in HEL 92.1.7 cells were determined by western blot. Cells were treated with HDAC11 inhibitors and lysed in RIPA buffer (Sigma-Aldrich, St. Louis, Mo.) supplemented with protease inhibitors (Roche, Basel, Switzerland) and phosphatase inhibitors (Sigma P5726). Protein concentrations were determined with Pierce BCA protein assay kit (Thermo Fisher Scientific, Waltham, Mass.). Proteins were separated on a 4-12% Bis-Tris gradient electrophoresis gel (Life Technologies, Carlsbad, Calif.) and transferred onto a nitrocellulose membrane. The membrane was then blocked in either 5% nonfat dry milk or 5% BSA followed by incubation with primary antibodies at 4° C. overnight. Antibodies for p-STAT5 (Abcam 32364), STAT5 (Cell Signaling 9358), p-STAT3 (Cell Signaling 9145) and STAT3 (Cell Signaling 9139) were used. β-actin was used as loading control.

[2] = tested on: STAT5 phosphorylation in HEL 92.1.7 cells; experiment: STAT3 and STAT5 phosphorylation western blot assay; format: cell-based; settings: HEL 92.1.7, western blot
Description: as §2

[3] = tested on: erythroid cells from MPN patients; experiment: Colony formation assay from MPN patient samples; format: cell-based, human; settings: MPN patient samples (ET; PV Ruxolitinib resistant), scored 12 to 14 days
Description: (§3) To determine the effects of selective HDAC11 inhibition on MPN patient samples, the effects of HDAC11 inhibitors were evaluated in a colony formation assay with erythroid or myeloid cells from MPN patients. Peripheral blood was obtained from MPN patients consented through the Moffitt Cancer Center Total Cancer Care protocol (MCC 14690). Blood was treated with HetaSep™ (STEMCELL Technologies, Inc.) to remove the majority of red blood cells. Peripheral blood mononuclear cells (PBMCs) were isolated by ficoll separation. PBMCs (1-4×105) were then plated in 1 mL of methylcellulose medium containing rhSCF, rhIL-3, and granulocyte-macrophage colony-stimulating factor (rhGM-CSF) (MethoCult™ #H4534; STEMCELL Technologies, Inc.). All drug treated samples contained 0.1% DMSO as the final concentration. Cells were incubated at 37° C. and 5% CO2 in a humidified incubator. Colonies were scored 12 to 14 days after plating.

[4] = tested on: myeloid cells from MPN patients; experiment: Colony formation assay from MPN patient samples; format: cell-based, human; settings: MPN patient samples (ET; PV Ruxolitinib resistant), scored 12 to 14 days
Description: as §3

H1650 SP cells = experiment: Tube formation assay with stem-like side population NSCLC cells; format: cell-based; settings: H1650 SP cells on Matrigel
Description: The angiogenic tubule assay was performed with the sorted side population cells to analyze vascular mimicry. The H1650 side population cells were sorted as mentioned above and they were further grown on Matrigel (BD Biosciences) to form angiogenic tubule-like structures. 100 μl of thawed Matrigel was layered on the wells of 96-well tissue culture plates and allowed to polymerize at 37° C. for 30 min. Sorted H1650 SP cells were layered (12000 cells/100 μl of Matrigel) on the polymerized matrigel and incubated overnight at 37° C. Tubule formation was assessed under bright field using EVOS FL microscope system and images were acquired with EVOS software (Life Technologies Inc., USA). For the treatment with HDAC11 inhibitors, appropriate concentrations of the compounds were added to the cells when they were seeded on Matrigel for the tubule formation assay.

A549 cells = experiment: Cell migration scratch assay; format: cell-based
Description: The effects of HDAC11 inhibition on cell migration were determined using a scratch assay. A549 cells (120,000-150,000 cells/2 ml/well) were grown in 6-well tissue culture plates (BD Biosciences). A scratch was made using a sterile 2 μl pipette tip in each well. The 10% FBS containing medium was added to the wells after a wash with DPBS. To assess the effect of the HDAC11 inhibitors on cell migration, the inhibitors were added in the medium at appropriate concentrations. The cells were further incubated at 37° C. The images were taken on Day 0 and after every 24 hours using EVOS FL microscope system and EVOS software (Life Technologies Inc) and the cell migration was compared to the Day 0 of treatment.

SMILES | growth of the HEL 92.1.7 cell line (HEL 92.1.7 cells) | growth of SET-2 cell line generated to be Ruxolitinib-resistant (SET-2 cells) | STAT3 phosphorylation [1] | STAT5 phosphorylation [2] | growth of colonies from erythroid cells [3] | growth of colonies from myeloid cells [4] | tubule formation (H1650 SP cells) | cell migration (A549 cells)
O=C(NO)c1cccc(Nc2nc3cc(Cl)c(Cl)cc3o2)c1 [HDTK010, 3-((5,6-dichlorobenzo[d]oxazol-2-yl)amino)-N-hydroxybenzamide] | inhibited the growth | inhibited the growth | inhibited | inhibited | reduced the growth of colonies | reduced the growth of colonies | – | –
O=C(NO)c1cccc2c1C[C@]1(CCN(Cc3ccc(Cl)c(C(F)(F)F)c3)C1=O)C2 [HDTK054, (S)-1′-(4-chloro-3-(trifluoromethyl)benzyl)-N-hydroxy-2′-oxo-1,3-dihydrospiro[indene-2,3′-pyrrolidine]-4-carboxamide] | – | – | – | – | – | – | inhibited tubule formation | impaired
